Measurements published in patent publication US20020028851A1, “Guanylhydrazones and their use to treat inflammatory conditions” (priority 1994, published 2002).
Where “and” joins values, the source holds several entries; their conditions need not be identical. Equal entries are not always repeated.

Tests used:
RAW 264.7 cells = assay: Whole cell inhibition assay for arginine uptake; format: cell-based, murine; conditions: for arginine transport % suppression of induced peak: γIFN+LPS, 8 hours
Protocol: In the embodiment described in the working example herein, a test population of cells was cultured for about 3 hours so that the cells became firmly adherent. Various concentrations of the potential inhibitors were then added to parallel cultures. One hour later the macrophage stimulators, e.g. including, but not limited to LPS and γIFN, were added. Eighteen hours later the cells were washed in a warm balanced salt solution supplemented with glucose. Carrier-free radiolabelled arginine was added; after 5 minutes, active uptake of arginine was stopped by washing the cell three times with buffer, chilled to 0° C., containing 10 mM unlabeled arginine to displace any externally bound label. The contents of the washed cells are solubilized in 100 μl of formic acid and counted by standard techniques.
RAW 264.7 cells are plated in standard 96-well microculture plates at a concentration of 10^5/well and allowed to adhere for from 2 hours to overnight. The medium is then replaced with medium containing the compound to be tested. One hour later, the medium is supplemented so as to contain 25 U/ml γIFN and 0.1 μg/ml LPS and the cultures incubated a further. The cells are then rinsed twice in HEPES- buffered Krebs salt solution with 0.1% glucose. Carrier-free tetra-^3H-arginine is added to each well (2.5 μCi/well with specific activity of […]) and the active uptake of arginine is allowed to continue for a 5 minute period after which the cells are rapidly cooled to 0° C. by lavage with iced saline containing 10 mM unlabeled arginine to displace any externally bound label. The contents of the washed cells are solubilized in 100 Al of formic acid and counted by standard techniques. In subsequent experiments to determine the acitivity of the inhibitors, incubations were performed for 8 hours.
This section describes experiments that measure the concentration of Compound No. 14 needed to inhibit arginine uptake and NO output. The techniques employed were described in section 7.1 supra.

C3H/HeN mice = assay: Carrageenan-induced paw swelling; format: in vivo
Protocol: Paw edema was induced by injection of 50 microliters of 1% Lambda-carrageenan in HEPES 25 mM, pH 7.4, into the planter surface of the left hindpaw of C3H/HeN mice, the right paw was injected with 50 microliters of HEPES alone. The animals were divided into two groups: controls (n=3) received vehicle only, i.p. 1.5 hour before paw injection; the experimental group […] was treated with Compound No. 14, 5 mg/Kg, i.p. 1.5 hour before paw injection. Three hours after paw injection, paw thickness was measured using a caliper, and the data expressed as change of carrageenan paw vs HEPES paw thickness.
The results are summarized in Table V which contains the carrageenan-induced increase in paw thickness in mm of three control and three Compound No. 14 treated mice. The inhibition can also be reported as percent inhibition of swelling as defined by the standard formula: Percent inhibition=(1−(treated/control))×100. Calculation of this parameter for treated animals in which Compound No. 14 suppressed swelling yields a 70% inhibition.

TNF [1] = assay: Serum TNF levels after parenteral LPS; format: in vivo, rats; conditions: i.p. 2.0 hours prior to LPS; measured 2-3 hours after LPS
Protocol: Qualitatively similar data has been obtained by measurement of the serum TNF levels in rats stimulated to produce TNF by parenteral LPS administration. Rats were given Compound No. 14, i.p., 2.0 hours prior to LPS stimulation. The serum levels of TNF were measured at between 2 and 3 hours after LPS stimulation.

TNF [2] = assay: Cytokine production by LPS/γIFN-stimulated human PBMC: TNF; format: cell-based; conditions: γIFN+LPS, 18 hr
Text: (§1) Similar results concerning a variety of cytokines in addition to TNF, e.g., IL-6 and Macrophage Inflammatory Proteins-1α and -1β (MIP-1α and MIP-1β) were obtained using human peripheral blood as a source of monocytes. Human peripheral blood mononuclear cells (PBMC) were isolated using “FICOLL®”-based methods and plated in standard 6-well culture plates at a concentration of 10^6/well and allowed to adhere for from 2 hr to overnight whereupon non-adherent cells were washed out and the medium was then replaced with medium containing the compound to be tested. One hour later, the medium was supplemented so as to contain 25 U/ml γIFN and 0.1 μg/ml LPS and the cultures incubated a further 18 hr. The medium was then collected, and cell debris removed by centrifugation. This conditioned supernatant was then assayed for the presence of cytokines using the standard methodologies of L929 cell cytotoxicity bioassay and immunoassay (ELISA).

IL-6 = assay: Cytokine production by LPS/γIFN-stimulated human PBMC: IL-6; format: cell-based; conditions: γIFN+LPS, 18 hr
Text: as §1

[3] = Pharmacokinetics by HPLC of serum; format: in vivo, rats
Protocol: Male Sprague-Dawley rats (Harlan Sprague Dawley, Indianapolis, Ind., USA) were anesthetized with ketamine and the right carotid artery cannulated with polyethylene tubing (PE-50). […] At 0, 5, 15, 30, 60, 90, 120, 180, 240, 300, 360 minutes 400 μl of blood was removed, stored at 4° C. for 4 hr, and then centrifuged at 15,000 ×g for 10 min, and the serum layer collected. Sodium azide was added to 0.0l v/v to prevent microbial growth and pentamidine was added to 5 μg/ml. Twenty-five μl of the resulting sample was analyzed by the HPLC method described.
The HPLC method was applied towards estimating the pharmacokinetic parameters of Compound No. 14 in adult rats receiving a 10 mg/kg dose as a single intra-arterial injection. In these experiments, the solid-phase extraction step was omitted due to the small volume of each sample, and the relatively large amount of Compound No. 14 which was recovered. Typical serum decay curves were obtained (FIG. 17, solid line), and the method of residuals, Gibaldi, M., & Perrier, D., 1982, PHARMACOKINETICS (Marcel Dekker, New York) pp. 433-444, was used to calculate the pharmacokinetic parameters (FIG. 17, dashed lines).

[4] = rats, 10 mg/kg single intra-arterial injection, n=3

SMILES: CC(=NNC(=N)N)c1cc(NC(=O)CCCCCCCCC(=O)Nc2cc(C(C)=NNC(=N)N)cc(C(C)=NNC(=N)N)c2)cc(C(C)=NNC(=N)N)c1.Cl.Cl.Cl.Cl [Compound 14, N,N′-bis(3,5-diacetyl-phenyl)decanediamide tetrakis(amidinohydrazone) tetrahydrochloride]
- arginine transport % suppression of induced peak (RAW 264.7 cells; dose 2 μM): 9%
- arginine transport % suppression of induced peak (RAW 264.7 cells; dose 10 μM): 19%
- arginine transport % suppression of induced peak (RAW 264.7 cells; dose 50 μM): 86%
- arginine transport % suppression of induced peak (RAW 264.7 cells; dose 200 μM): 100%
- IC50 (RAW 264.7 cells; exposed prior to stimulation, uptake measured at 8 hours, read-out: I.C.50 for arginine uptake): 7.5 µM
- CHANGE IN PAW THICKNESS (carrageenan paw vs HEPES paw) (C3H/HeN mice; 5 mg/Kg i.p. 1.5 hour before paw injection, three hours after, individual mice): 0.54 mm and 0.41 mm and 0.4 mm
- Percent inhibition of swelling (C3H/HeN mice; 5 mg/Kg i.p., (1−(treated/control))×100): 70%
- serum TNF level vs untreated controls (TNF [1]): about half the level of serum TNF
- concentration that effectively inhibited production of TNF (TNF [2]): 10 to 20 µM
- concentration that effectively inhibited production of IL-6 (IL-6): 10 to 20 µM
- absorption and bioavailability ([3]; intraperitoneal or oral dosing routes (data not shown)): not rapidly absorbed, and may have a low bioavailability
- distribution half-life (t½α) [3, 4]: 2.41 ± 0.69 min
- distribution rate constant (α) [3, 4]: 0.31 ± 0.09 min⁻¹
- elimination half-life (t½β) [3, 4]: 5.02 ± 0.00 h
- elimination rate constant (β) [3, 4]: 0.0023 ± 0.0000 min⁻¹
- total clearance (CL) [3, 4]: 5.62 ± 0.47 mL/min
- volume of distribution (Vd) [3, 4]: 2.45 ± 0.21 L
- peak plasma levels ([3]; single doses of 0.4-1.0 mg/kg, from pharmacokinetic constants and FIG. 17): > 0.5 µM
